These results are taken from patent US20240400584A1, “COMPOUNDS AND METHODS FOR MODULATING SPLICING” (REMIX THERAPEUTICS INC., priority 2021, published 2024).

Experiment [1] deals with MYB. Description: RT-qPCR splicing assay, MYB AJ/CJ mRNA. The settings on record: Homo sapiens, A673 or K562 cells, 24 hours; for IC50: decrease in canonical junction mRNA; for AC50: increase in alternative junction mRNA. Format: cell-based. Summed up: (§1)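 A673 or K562 cells were treated for 24 h at 37° C with an 11-point 3-fold compound series (top 10 uM, DMSO ≤0.25%). Lysates underwent RT-qPCR for the canonical (CJ) and alternative-exon (AJ) junctions, normalized to GAPDH, GUSB or PPIA, then to DMSO (ΔΔCt), giving RQ and percentage response.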

The test system of experiment [2] is MYB. Description: Gene panel canonical junction qPCR assay, MYB CJ mRNA (Table 7). The experiment is classed as cell-based. The settings on record: Homo sapiens, read-out: MYB CJ mRNA decrease IC50. Summed up: (§2)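 A673/K562 cells + cpd → lysate → cDNA → qPCR, CY5 5′ nuclease probe set overlapping canonical junction. Normalized to GAPDH/GUSB/PPIA and DMSO via ΔΔCt, RQ → % response over fixed ΔCt window. IC50 = 50% CJ decrease, 4PL fit.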
For orientation: In qPCR the cycle at which signal appears reflects the starting amount.

For experiment [3], the system named is SMN2. In words: Gene panel canonical junction qPCR assay, SMN2 CJ mRNA (Table 7). The experiment is classed as cell-based. The conditions noted are these: Homo sapiens, read-out: SMN2 CJ mRNA decrease IC50. Put shortly: as §2
Experiment [4] relates to HTT. In words: Gene panel canonical junction qPCR assay, HTT CJ mRNA (Table 7). The conditions noted are these: Homo sapiens, read-out: HTT CJ mRNA decrease IC50. Format: cell-based, human. Summed up:
as §2

Experiment [5] relates to HTT. Description: RT-qPCR splicing assay, HTT AJ/CJ mRNA. The experiment is classed as cell-based, human. The settings on record: Homo sapiens, 24 h, A673 or K562 cells; for IC50: decrease in canonical junction mRNA; for AC50: increase in alternative junction mRNA. Summed up: as §1
Experiment [6] deals with Target C. Description: Gene panel canonical junction qPCR assay, Target C CJ mRNA (Table 7). The settings on record: Homo sapiens, read-out: Target C CJ mRNA decrease IC50. The experiment is classed as cell-based, human. Summed up:
as §2

What is called IC50 is the concentration that inhibits the measured activity by half. Usually AC50 stands for the concentration at which the activity in the assay is half-maximal. Read a high AC50 as weaker potency.

With `CC1(C)CC(Oc2ccc3c(n2)OCc2cc(-n4cccn4)ccc2-3)CCN1` (stereo not shown) [Compound 186], the IC50 in experiment [1] was 1000 to 10000 nM; in experiment [2], 1000 to 10000 nM; in experiment [3], 100 to 1000 nM; in experiment [4], 1000 to 10000 nM; in experiment [5] it was 1000 to 10000 nM; in experiment [6] it was over 10000 nM. Also, the AC50 was over 10000 nM in experiment [1] and 1000 to 10000 nM in experiment [5].
In the case of `c1cnn(-c2ccc3c(c2)COc2nc(OC4CCNCC4)ccc2-3)c1` [Compound 187], the IC50 in experiment [1] is over 10000 nM; in experiment [2], over 10000 nM; in experiment [3] it was 1000 to 10000 nM; in experiment [4], 1000 to 10000 nM; in experiment [5], 1000 to 10000 nM; in experiment [6], over 10000 nM. The AC50 in experiment [1] and in experiment [5] was over 10000 nM each time.
With `c1cnn(-c2ccc3c(c2)COc2nc(O[C@@H]4C[C@H]5CC[C@@H](C4)N5)ccc2-3)c1` [Compound 188], the IC50 fell in the range of 1000 to 10000 nM in experiment [1]; 1000 to 10000 nM in experiment [2]; 100 to 1000 nM in experiment [3]; 100 to 1000 nM in experiment [4]; 100 to 1000 nM in experiment [5]; 1000 to 10000 nM in experiment [6]. The AC50 was 1000 to 10000 nM in experiment [1] and 100 to 1000 nM in experiment [5].
Consider `CCN(c1ccc2c(n1)OCc1cc(-n3cccn3)ccc1-2)C1CC(C)(C)NC(C)(C)C1` [Compound 189], for which the IC50 in experiment [1] is 1000 to 10000 nM; in experiment [2] it was 1000 to 10000 nM; in experiment [3], 1000 to 10000 nM; in experiment [4], over 10000 nM; in experiment [5] it was over 10000 nM; in experiment [6], over 10000 nM. The AC50 is over 10000 nM in experiment [1] and 1000 to 10000 nM in experiment [5].
As for `c1cnn(-c2ccc3c(c2)COc2nc(N[C@@H]4C[C@H]5CCC[C@@H](C4)N5)ccc2-3)c1` [Compound 190], the IC50 in experiment [1] is 100 to 1000 nM; in experiment [2] it was 100 to 1000 nM; in experiment [3], under 100 nM; in experiment [4], under 100 nM; in experiment [5], under 100 nM; in experiment [6], 100 to 1000 nM. In addition, the AC50 in experiment [1] and in experiment [5] was 100 to 1000 nM each time.
Regarding `CCN(c1ccc2c(n1)OCc1cc(-n3cccn3)ccc1-2)[C@@H]1C[C@H]2CC[C@@H](C1)N2` [Compound 191], the IC50 fell in the range of 1000 to 10000 nM in experiment [1]; 1000 to 10000 nM in experiment [2]; 100 to 1000 nM in experiment [3]; 100 to 1000 nM in experiment [4]; 100 to 1000 nM in experiment [5]; 1000 to 10000 nM in experiment [6]. For the same compound, the concentration at half-maximal activity (AC50) was over 10000 nM in experiment [1] and 1000 to 10000 nM in experiment [5].
With `c1cnn(-c2ccc3c(c2)COc2nc(N4CCCC5(CCNC5)C4)ccc2-3)c1` (stereo not shown) [Compound 192], the IC50 in experiment [1], in experiment [2], in experiment [3], in experiment [4], in experiment [5] and in experiment [6] was over 10000 nM each time. In addition, the AC50 in experiment [1] and in experiment [5] was over 10000 nM throughout.
On to `c1cnn(-c2ccc3c(c2)COc2nc(S[C@@H]4C[C@H]5CC[C@@H](C4)N5)ccc2-3)c1` [Compound 193], for which the IC50 in experiment [1] was 1000 to 10000 nM; in experiment [2] it was 1000 to 10000 nM; in experiment [3], over 10000 nM; in experiment [4], 1000 to 10000 nM; in experiment [5], over 10000 nM; in experiment [6], over 10000 nM. Besides, the AC50 in experiment [1] and in experiment [5] was over 10000 nM each time.
For the compound `CN1C[C@@H]2[C@H](C1)[C@H]2N(C)c1ccc2c(n1)OCc1cc(-n3cccn3)ccc1-2` [Compound 196], the IC50 in experiment [1], in experiment [2], in experiment [3], in experiment [4], in experiment [5] and in experiment [6] was over 10000 nM each time. For the same compound, the AC50 in experiment [1] and in experiment [5] was over 10000 nM throughout.
Turning to `CN(C)[C@H]1[C@@H]2CN(c3ccc4c(n3)OCc3cc(-n5cccn5)ccc3-4)C[C@@H]21` [Compound 197], the IC50 in experiment [1] is over 10000 nM; in experiment [2], over 10000 nM; in experiment [3], over 10000 nM; in experiment [4], 1000 to 10000 nM; in experiment [5], 1000 to 10000 nM; in experiment [6], over 10000 nM. For the same compound, the results for the concentration at half-maximal activity (AC50) in experiment [1] and in experiment [5] were 1000 to 10000 nM and over 10000 nM, respectively.
Regarding `c1cnn(-c2ccc3c(c2)COc2nc(O[C@@H]4C[C@H]5CCC[C@@H](C4)N5)ccc2-3)c1` [Compound 198], the IC50 in experiment [1] lay in the range of 100 to 1000 nM; in experiment [2], 100 to 1000 nM; in experiment [3] it was 100 to 1000 nM; in experiment [4] it was 100 to 1000 nM; in experiment [5] it was 100 to 1000 nM; in experiment [6], 1000 to 10000 nM. Further, the AC50 in experiment [1] and in experiment [5] was 100 to 1000 nM each time.
Take `[2H]C([2H])([2H])N(c1ccc2c(n1)OCc1cc(-n3cccn3)ccc1-2)C1CC(C)(C)NC(C)(C)C1` [Compound 199]: the IC50 in experiment [1] was over 10000 nM; in experiment [2], over 10000 nM; in experiment [3], 1000 to 10000 nM; in experiment [4], 1000 to 10000 nM; in experiment [5], 1000 to 10000 nM; in experiment [6] it was over 10000 nM. Moreover, the AC50 is over 10000 nM in experiment [1] and 1000 to 10000 nM in experiment [5].
On to `[2H]C([2H])([2H])N(c1ccc2c(n1)OCc1cc(-n3cccn3)ccc1-2)C1C[C@H]2CCC[C@@H](C1)N2` (stereo partly shown) [Compound 200], for which the IC50 in experiment [1] was 100 to 1000 nM; in experiment [2], 100 to 1000 nM; in experiment [3], under 100 nM; in experiment [4] it was under 100 nM; in experiment [5] it was under 100 nM; in experiment [6], 100 to 1000 nM. For the same compound, the AC50 in experiment [1] was 100 to 1000 nM; in experiment [5], under 100 nM.
As for `[2H]C([2H])([2H])N(c1ccc2c(n1)OCc1cc(-n3cccn3)ccc1-2)[C@@H]1C[C@H]2CC[C@@H](C1)N2` [Compound 201], the IC50 in experiment [1] is 100 to 1000 nM; in experiment [2], 100 to 1000 nM; in experiment [3], under 100 nM; in experiment [4] it was 100 to 1000 nM; in experiment [5], 100 to 1000 nM; in experiment [6], 100 to 1000 nM. For the same compound, the AC50 in experiment [1] lay in the range of 1000 to 10000 nM; in experiment [5], 100 to 1000 nM.
Take `c1cnn(-c2ccc3c(c2)COc2nc(N(C4CCNCC4)C4CC4)ccc2-3)c1` [Compound 202]: the IC50 in experiment [1] is 1000 to 10000 nM; in experiment [2], 1000 to 10000 nM; in experiment [3] it was over 10000 nM; in experiment [4], 1000 to 10000 nM; in experiment [5], 1000 to 10000 nM; in experiment [6], over 10000 nM. Further, the AC50 in experiment [1] and in experiment [5] was over 10000 nM throughout.
Consider `CC1(C)CC(N(c2ccc3c(n2)OCc2cc(-n4cccn4)ccc2-3)C2CC2)CC(C)(C)N1` [Compound 204], for which the IC50 was 1000 to 10000 nM in experiment [1]; 1000 to 10000 nM in experiment [2]; 1000 to 10000 nM in experiment [3]; 1000 to 10000 nM in experiment [4]; 1000 to 10000 nM in experiment [5]; over 10000 nM in experiment [6]. Besides, the AC50 in experiment [1] and in experiment [5] was over 10000 nM throughout.
Turning to `c1cc2c(cc1-c1cn[nH]c1)COc1nc(N3CCC4(CCN4)C3)ccc1-2` (stereo not shown) [Compound 217, 6-[8-(1H-pyrazol-4-yl)-6H-isochromeno[3,4-b]pyridin-3-yl]-1,6-diazaspiro[3.4]octane], the IC50 in experiment [1] was in the range of 1000 to 10000 nM; in experiment [2], 1000 to 10000 nM; in experiment [3], 100 to 1000 nM; in experiment [4] it was 100 to 1000 nM; in experiment [5] it was 100 to 1000 nM; in experiment [6], 1000 to 10000 nM. Further, the AC50 was over 10000 nM in experiment [1] and 1000 to 10000 nM in experiment [5].
Regarding `CC1(C)CC(Oc2ccc3c(n2)OCc2cc(-c4cn[nH]c4)ccc2-3)CC(C)(C)N1` [Compound 219, 8-(1H-pyrazol-4-yl)-3-((2,2,6,6-tetramethylpiperidin-4-yl)oxy)-6H-isochromeno [3,4-b] pyridine], the IC50 in experiment [1], in experiment [2], in experiment [3], in experiment [4], in experiment [5] and in experiment [6] was 100 to 1000 nM throughout. In addition, the AC50 in experiment [1] was over 10000 nM; in experiment [5], 100 to 1000 nM.
For `CN1CCC12CCN(c1ccc3c(n1)OCc1cc(-c4cn[nH]c4)ccc1-3)C2` (stereo not shown) [Compound 220, 3-(1-methyl-1,6-diazaspiro[3.4]octan-6-yl)-8-(1H-pyrazol-4-yl)-6H-isochromeno[3,4-b]pyridine], the IC50 fell in the range of 100 to 1000 nM in experiment [1]; 100 to 1000 nM in experiment [2]; 100 to 1000 nM in experiment [3]; 100 to 1000 nM in experiment [4]; 100 to 1000 nM in experiment [5]; 1000 to 10000 nM in experiment [6]. The AC50 in experiment [1] and in experiment [5] was 100 to 1000 nM throughout.
For `c1cc2c(cc1-c1cn[nH]c1)COc1nc(N3CCC34CCNCC4)ccc1-2` [Compound 221, 1-[8-(1H-pyrazol-4-yl)-6H-isochromeno[3,4-b]pyridin-3-yl]-1,7-diazaspiro[3.5]nonane 2,2,2-trifluoroacetate], the IC50 in experiment [1] is 1000 to 10000 nM; in experiment [2], 1000 to 10000 nM; in experiment [3], over 10000 nM; in experiment [4] it was over 10000 nM; in experiment [5], over 10000 nM; in experiment [6], over 10000 nM. Besides, the AC50 in experiment [1] and in experiment [5] was over 10000 nM throughout.
